# Assays:
# [1] = biological target: T1, 3',5'-cyclic-AMP phosphodiesterase 4A (Homo sapiens, UniProt P27815); experiment: Inhibition of PDE4A with respect to increase in cAMP concentration
# [2] = biological target: 3',5'-cyclic-AMP phosphodiesterase 4C (Homo sapiens, UniProt Q08493); experiment: Inhibition of PDE4C
# [3] = biological target: 3',5'-cyclic-AMP phosphodiesterase 4B (Homo sapiens, UniProt Q07343); experiment: Inhibition of PDE4B
# [4] = biological target: T1, 3',5'-cyclic-AMP phosphodiesterase 4A; experiment: Inhibition of PDE4A
# T1 sequence (P27815 whole entry): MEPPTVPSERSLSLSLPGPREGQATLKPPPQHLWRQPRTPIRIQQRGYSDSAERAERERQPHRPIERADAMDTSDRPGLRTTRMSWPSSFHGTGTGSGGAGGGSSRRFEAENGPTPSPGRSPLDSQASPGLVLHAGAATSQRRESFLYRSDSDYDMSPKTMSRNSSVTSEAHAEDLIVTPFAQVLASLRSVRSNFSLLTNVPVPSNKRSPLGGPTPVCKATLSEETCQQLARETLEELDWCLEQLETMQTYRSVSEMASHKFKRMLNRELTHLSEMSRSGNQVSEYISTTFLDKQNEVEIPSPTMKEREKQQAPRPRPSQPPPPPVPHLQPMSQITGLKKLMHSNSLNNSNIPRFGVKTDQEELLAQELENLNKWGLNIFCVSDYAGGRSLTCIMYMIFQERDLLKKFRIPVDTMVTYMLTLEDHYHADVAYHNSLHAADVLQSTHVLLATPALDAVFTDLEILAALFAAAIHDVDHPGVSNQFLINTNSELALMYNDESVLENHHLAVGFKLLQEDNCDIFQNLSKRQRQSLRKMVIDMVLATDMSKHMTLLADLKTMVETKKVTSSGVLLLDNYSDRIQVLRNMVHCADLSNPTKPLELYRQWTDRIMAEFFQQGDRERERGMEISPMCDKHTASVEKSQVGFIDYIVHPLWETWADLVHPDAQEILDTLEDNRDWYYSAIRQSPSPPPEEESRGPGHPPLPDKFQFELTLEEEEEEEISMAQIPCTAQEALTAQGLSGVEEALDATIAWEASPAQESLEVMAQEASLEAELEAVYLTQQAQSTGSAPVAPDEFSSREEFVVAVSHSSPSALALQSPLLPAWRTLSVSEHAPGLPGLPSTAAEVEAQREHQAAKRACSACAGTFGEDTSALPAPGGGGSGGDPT
# Chain of 3',5'-cyclic-AMP phosphodiesterase 4B (Q07343 whole entry): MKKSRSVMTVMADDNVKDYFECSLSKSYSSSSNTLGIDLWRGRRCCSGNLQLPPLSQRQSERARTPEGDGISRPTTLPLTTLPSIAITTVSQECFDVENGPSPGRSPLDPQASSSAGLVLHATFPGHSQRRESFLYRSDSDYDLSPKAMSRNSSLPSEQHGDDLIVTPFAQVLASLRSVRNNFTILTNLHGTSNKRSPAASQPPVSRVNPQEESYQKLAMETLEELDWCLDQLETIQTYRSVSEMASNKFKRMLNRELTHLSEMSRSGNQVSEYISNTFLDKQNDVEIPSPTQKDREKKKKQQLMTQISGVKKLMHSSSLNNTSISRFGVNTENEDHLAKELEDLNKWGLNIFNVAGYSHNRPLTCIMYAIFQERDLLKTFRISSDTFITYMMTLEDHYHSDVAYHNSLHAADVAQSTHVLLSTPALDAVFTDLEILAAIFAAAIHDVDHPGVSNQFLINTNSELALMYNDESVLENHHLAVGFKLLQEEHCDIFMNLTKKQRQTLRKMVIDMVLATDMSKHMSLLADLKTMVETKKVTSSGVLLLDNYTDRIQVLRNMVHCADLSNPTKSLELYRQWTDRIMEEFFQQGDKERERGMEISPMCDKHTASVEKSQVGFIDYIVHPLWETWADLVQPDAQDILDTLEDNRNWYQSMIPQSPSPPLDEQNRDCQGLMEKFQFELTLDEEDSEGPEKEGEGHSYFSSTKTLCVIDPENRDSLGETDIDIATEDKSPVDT
# Chain of 3',5'-cyclic-AMP phosphodiesterase 4C (Q08493 whole entry): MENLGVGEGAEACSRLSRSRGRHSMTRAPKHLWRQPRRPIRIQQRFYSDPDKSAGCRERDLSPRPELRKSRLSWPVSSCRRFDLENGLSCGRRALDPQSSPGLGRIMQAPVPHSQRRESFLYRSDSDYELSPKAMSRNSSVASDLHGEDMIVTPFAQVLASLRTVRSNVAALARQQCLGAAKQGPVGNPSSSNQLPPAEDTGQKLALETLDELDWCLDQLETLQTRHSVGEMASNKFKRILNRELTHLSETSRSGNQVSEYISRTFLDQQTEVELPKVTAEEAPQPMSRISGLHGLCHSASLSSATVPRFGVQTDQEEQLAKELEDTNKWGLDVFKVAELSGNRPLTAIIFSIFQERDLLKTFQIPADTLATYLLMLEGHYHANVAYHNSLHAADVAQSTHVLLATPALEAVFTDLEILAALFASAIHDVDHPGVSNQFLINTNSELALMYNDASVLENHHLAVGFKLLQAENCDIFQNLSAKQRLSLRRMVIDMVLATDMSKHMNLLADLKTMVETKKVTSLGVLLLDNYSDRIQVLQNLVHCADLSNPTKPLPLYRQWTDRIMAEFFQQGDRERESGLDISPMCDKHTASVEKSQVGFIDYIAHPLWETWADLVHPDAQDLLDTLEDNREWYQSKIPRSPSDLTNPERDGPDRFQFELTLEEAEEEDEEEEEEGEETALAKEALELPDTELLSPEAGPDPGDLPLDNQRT
Ki [1],IC50 [2],IC50 [3],IC50 [4],SMILES
0.43 nM,–,–,–,[O-][n+]1cccc(C[C@@H](c2ccc(OC(F)F)c(OC3CC3)c2)c2cnc(C(O)(C(F)(F)F)C(F)(F)F)s2)c1
–,135 nM,40 nM,56 nM,[O-][n+]1cccc(C[C@H](c2ccc(OC(F)F)c(OC3CC3)c2)c2cnc(C(O)(C(F)(F)F)C(F)(F)F)s2)c1
